In publication PMC2646182 (Journal of the American Chemical Society, 2009):
Entries after “also recorded” stand apart in the source; their conditions may differ. Like-named read-outs stand apart in the source and are kept apart here.

Tests used:
w794 DNA = experiment: DNA alkylation, thermally-induced strand cleavage of w794 DNA; assay type: biochemical; conditions: 23 °C
L1210 [1] = experiment: In vitro cytotoxic activity, L1210; assay type: cell-based; conditions: for IC50: L1210 in vitro cytotoxic activity
[2] = Acid-catalyzed solvolysis at pH 3 monitored by UV; assay type: physicochemical; conditions: for solvolysis half-life t1/2 / solvolysis rate constant k: pH 3, 50% MeOH–buffer
w794 and w836 duplex DNA = experiment: DNA alkylation of the simple alkylation subunits; assay type: biochemical; conditions: for DNA alkylation selectivity (sites): both enantiomers
Solvolysis at pH 7 = assay type: physicochemical
[3] = pH 3; cited from earlier work
L1210 [4] = conditions: read-out: L1210 IC50; L1210, introduction; cited from earlier work
w836 DNA = experiment: DNA alkylation, thermally-induced strand cleavage of w836 DNA; assay type: biochemical; conditions: after 24 h

## O-benzyl-iso-duocarmycin SA [(−)-34]
w794 DNA; w794, 22 h, 1 × 10^−5 M
  DNA alkylation efficiency relative to duocarmycin SA (1): nearly equivalent to that of 1
L1210 [1]; L1210
  fold less active than duocarmycin SA: 600 fold
  fold less active than iso-duocarmycin SA: 120 fold
L1210 [1]
  IC50: 6 nM
[2]; pH 3 solvolysis
  fold more reactive than N-Boc-iso-DSA (7): 470 fold

## COC(=O)c1cc2c([nH]1)C(=O)C=C1N(C(=O)OC(C)(C)C)CC3CC123 (single isomer, unassigned; (-)) [(−)-8, N-Boc-DSA, reference compound]
L1210 [1]
  IC50: 60 nM

## O-benzyl-iso-duocarmycin SA [(+)-34]
L1210 [1]
  IC50: 7 nM

## COC(=O)c1cc2c([nH]1)[C@@]13C[C@@H]1CN(C(=O)c1cc4cc(OC)c(OC)c(OC)c4[nH]1)C3=CC2=O [(+)-5, iso-duocarmycin SA]
L1210 [1]
  IC50: 0.05 nM

## COC(=O)c1cc2c([nH]1)C(=O)C=C1N(C(=O)c3cc4cc(OC)c(OC)c(OC)c4[nH]3)CC3CC123 (single isomer, unassigned; (+)) [(+)-1, duocarmycin SA, reference compound]
L1210 [1]
  IC50: 0.01 nM

## COC(=O)c1cc2c([nH]1)C(=O)C=C1N(C(=O)OC(C)(C)C)CC3CC123 (stereo not shown) [Compound 8, N-Boc-DSA, reference compound]
w794 and w836 duplex DNA
  times less efficient DNA alkylation than the full length agents: 10^3–10^4 times
  DNA alkylation selectivity (sites): 5′-AA and 5′-TA
Solvolysis at pH 7
  solvolysis at pH 7: stable
[3]
  solvolysis half-life t1/2: 177 h

## COC(=O)c1cc2c([nH]1)C(=O)C=C1N(C(=O)OC(C)(C)C)CC3CC123 (single isomer, unassigned; (+)) [(+)-8, N-Boc-DSA, reference compound]
L1210 [1]
  IC50: 6 nM

## COC(=O)c1cc2c([nH]1)[C@@]13C[C@@H]1CN(C(=O)c1cc4cc(OC)c(OC)c(OC)c4[nH]1)C3=CC2=O [(−)-5, iso-duocarmycin SA]
L1210 [1]
  IC50: 0.55 nM

## COC(=O)c1cc2c([nH]1)C(=O)C=C1N(C(=O)c3cc4cc(OC)c(OC)c(OC)c4[nH]3)CC3CC123 (stereo not shown) [Compound 1, Duocarmycin SA]
L1210 [4]
  IC50: 10 pM

## iso-yatakemycin [(−)-6]
w836 DNA
  fold less DNA alkylation than the yatakemycin enantiomers: 2–5 fold
L1210 [1]; L1210
  fold less potent than the duocarmycin SA / yatakemycin series counterpart: ca. 5 fold
L1210 [1]
  IC50: 0.03 nM

## yatakemycin [Compound 3, reference compound]
L1210 [4]
  IC50: 3 to 6 pM
L1210 [1]
  IC50: 0.006 nM

## COC(=O)c1cc2c([nH]1)[C@@]13C[C@@H]1CN(C(=O)OC(C)(C)C)C3=CC2=O [Compound 7, N-Boc-iso-DSA]
w794 and w836 duplex DNA
  times less efficient DNA alkylation than the full length agents: 10^3–10^4 times
  DNA alkylation selectivity (sites): 5′-AA and 5′-TA
Solvolysis at pH 7
  solvolysis at pH 7: no measurable solvolysis; also recorded: stable
L1210 [1]; L1210
  fold difference in potency, natural vs unnatural enantiomer: 10 fold
  fold less potent than the duocarmycin SA / yatakemycin series counterpart: 5 fold
[2]
  solvolysis half-life t1/2: 89 h
  solvolysis rate constant k: 2.2e-06 s⁻¹
[2]; pH 3 solvolysis
  fold more reactive than N-Boc-DSA (8): 2 fold

## iso-yatakemycin [(+)-6]
w836 DNA
  fold less DNA alkylation than the yatakemycin enantiomers: 2–5 fold
L1210 [1]
  IC50: 0.015 nM

## COC(=O)c1cc2c([nH]1)[C@@]13C[C@@H]1CN(C(=O)OC(C)(C)C)C3=CC2=O [(−)-7, N-Boc-iso-DSA]
L1210 [1]
  IC50: 330 nM

## COC(=O)c1cc2c([nH]1)[C@@]13C[C@@H]1CN(C(=O)c1cc4cc(OC)c(OC)c(OC)c4[nH]1)C3=CC2=O [Compound 5, iso-duocarmycin SA]
w794 DNA; w794, 48 h
  DNA alkylation site selectivity vs duocarmycin SA counterpart: alkylated the same site as its duocarmycin SA counterpart
L1210 [1]; L1210
  fold difference in potency, natural vs unnatural enantiomer: 10 fold
  fold less potent than the duocarmycin SA / yatakemycin series counterpart: 5 fold
L1210 [1]
  IC50: 0.05 nM

## COC(=O)c1cc2c([nH]1)[C@@]13C[C@@H]1CN(C(=O)OC(C)(C)C)C3=CC2=O [(+)-7, N-Boc-iso-DSA]
L1210 [1]
  IC50: 33 nM

## O-benzyl-iso-duocarmycin SA [Compound 34]
Solvolysis at pH 7; pH 7, 50% MeOH–H2O
  solvolysis half-life t1/2: 12 min
  solvolysis rate constant k: 0.000977 s⁻¹
[2]
  solvolysis half-life t1/2: 0.19 h
  solvolysis rate constant k: 0.001 s⁻¹
[2]; pH 3 solvolysis
  fold more reactive than N-Boc-iso-DSA (7): 470 fold

## COC(=O)c1cc2c([nH]1)C(=O)C=C1N(C(=O)c3cc4cc(OC)c(OC)c(OC)c4[nH]3)CC3CC123 (single isomer, unassigned; (-)) [(−)-1, duocarmycin SA, reference compound]
L1210 [1]
  IC50: 0.1 nM
